{"source": "patent US8343916B2", "about": "“Use of heat-shock protein 27 for cardiovascular disease prevention and treatment” (Ottawa Heart Institute Research Corporation, priority 2007, dated 2013)", "key": {"ApoE−/− mice": {"test_system": "ApoE−/− mice", "assay": "Short term (3 week) rHSP27 treatment of ApoE−/− mice on high fat diet", "assay_type": "in vivo, mouse", "experimental": "ApoE^−/− mice were maintained on a high fat diet and randomized to rHSP27 (100 ug) vs. phosphate buffered saline (PBS) twice a day for 3 weeks.\nFIG. 22A depicts the experimental design: ApoE^−/− mice were maintained on a high fat diet and randomized to rHSP27 (100 ug) vs. phosphate buffered saline (PBS) twice a day for 3 weeks. The mice were then euthanized and blood samples were collected. After perfusing with phosphate-buffered saline (PBS) followed by 4% paraformaldehyde (PFA) in PBS via the left ventricle, the heart and aorta were removed and immersed in 4% PFA/PBS at 4° C. overnight. Serum lipoprotein separation was performed by fast-performance liquid chromatography (FPLC) analysis using a Superose 6 column (Pharmacia Biotech Inc., Piscataway, N.J., USA) on an HPLC system model 805 MANOMETRIC MODULE (GILSON). An enzymatic assay kit (Wako Pure Chemical Industries, Ltd, Osaka, Japan) was employed to determine cholesterol level. The content of the aortic atherosclerotic lesions were assessed using quantitative histochemical and immunohistochemical methods. Dark red oil red O staining identifying lipidoid deposits, while Haematoxylin and eosin (H&E) stained denote tissue histopathology.\nHematoxylin and eosin (H&E) stained tissue sections were also labeled for nuclear staining (blue fluorescent Hoechst 33258), apoptosis (green fluorescent TUNEL labeling) and macrophages accumulation (green fluorescent Mac-2)."}, "[1]": {"assay": "rHSP27 pharmacokinetic experiments (subcutaneous injection)", "assay_type": "in vivo, mouse", "conditions": "100 μg subcutaneously, male and female ApoE−/− mice; similar to female ApoE−/− HSP27o/e mice", "experimental": "These were performed by injecting 100 μg of purified rHSP27 or control BSA (in PBS) subcutaneously into male and female ApoE^−/− mice and then checked serum rHSP27 levels at various times post-injection (n=3-6)."}, "Insulin": {"test_system": "Insulin", "assay": "rHSP27 chaperone activity assay (DTT-induced aggregation of insulin)", "assay_type": "biochemical", "conditions": "Insulin 40 μM; Insulin:rHSP27 10:1 and 100:1; 43° C.; absorbance at 320 nm", "experimental": "The rHSP27 was produced in E. coli. The rHSP27 so produced is >90% endotoxin free (endotoxin concentration assessed using Limulus Amebocyte Lysate gel-blot Assay: 2-3 EU/mg protein). Based on in vitro chaperone assay experiments, the protein is “functional”. […] The DTT-induced aggregation of insulin was performed in the absence and presence of rHSP27 in PBS solution, pH 7.4, to measure the chaperone activity of rHSP27. Insulin (40 μM) with different concentration of rHSP27 (Insulin: rHSP27=10:1 and 100:1 and no rHSP27) in PBS were incubated for 10 min at 43° C., respectively. Aggregation was monitored by measure the absorbance at 320 nm in Bioteck Synergy Mx spectrophotometer for 30 min at 43° C. after add DTT to a final concentration of 20 mM."}, "[2]": {"test_system": "macrophages (acLDL uptake via the scavenger receptor A)", "assay": "Fluorescent acLDL uptake by macrophages", "assay_type": "cell-based, mouse", "experimental": "Cells were treated with Dil-acLDL (5 μg/ml) for 4 hours at 37° C., in the presence of recombinant HSP27 (5 μg/ml) and/or fucoidan (10 μg/ml). Cells were harvested by gentle cell scraping in 100 μl of PBS. Each sample was analyzed for acLDL fluorescence on a BMG PolarStar plate reader (excitation: 510 nm, emission: 570 nm) and normalized to total cell number using the Vi-Cell cell counter (Beckman Coulter, Mississauga, ON).\nFoam cell formation is a hallmark process in the development of atherosclerosis, and prevention of lipid uptake by macrophages may serve to reduce overall lesion development and inflammation. If HSP27 can bind the SR-A in vitro, and there is an atheroprotective effect of HSP27 in vivo, HSP27 may prevent the SR-A from taking up atherogenic lipids such as acLDL and becoming foam cells. In support of this, mouse macrophages were cultured in vitro in the presence of fluorescently labeled acLDL for […], and acLDL uptake was measured using a fluorometer and normalized to total cell number.\nExtracellular HSP27 inhibits uptake of acLDL by macrophages via the scavenger receptor A. Fluorescently labeled acLDL (5 μg/ml) was given to macrophages in the presence (right columns) or absence (left columns) of recombinant HSP27 (5 μg/ml). […] Fluorescent uptake was measured and normalized to total cell number."}, "[3]": {"molecular_target": "T1, scavenger receptor A (SR-A) (Mus musculus, UniProt P30204)", "T1 construct": "detection of a ˜50 kDa band corresponding to SR-A in these cells; endogenous in cells; host or cells: J774 mouse macrophages (untransfected); mouse peritoneal macrophages", "T1 sequence (P30204 1-458)": "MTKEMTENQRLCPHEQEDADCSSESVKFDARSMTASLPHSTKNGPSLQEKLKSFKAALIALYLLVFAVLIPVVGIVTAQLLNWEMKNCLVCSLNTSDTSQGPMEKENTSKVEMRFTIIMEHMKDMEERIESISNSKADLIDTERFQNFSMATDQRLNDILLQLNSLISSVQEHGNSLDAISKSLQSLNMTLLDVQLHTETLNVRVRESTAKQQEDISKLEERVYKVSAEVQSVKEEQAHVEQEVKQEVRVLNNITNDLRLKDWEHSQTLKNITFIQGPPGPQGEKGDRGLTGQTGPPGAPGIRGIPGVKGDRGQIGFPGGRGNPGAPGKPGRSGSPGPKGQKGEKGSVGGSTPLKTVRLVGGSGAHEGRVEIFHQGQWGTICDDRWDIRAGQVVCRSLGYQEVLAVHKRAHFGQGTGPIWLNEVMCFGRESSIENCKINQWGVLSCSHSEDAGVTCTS", "assay": "Immunolabeling of recombinant HSP27 binding to macrophage surface and SR-A", "experimental": "J774 cells treated with recombinant HSP27 (5 μg/ml) with or without fucoidan (10 μg/ml) were fixed with BD Cytofix (BD Biosciences, Mississauga, ON) and blocked with 2% bovine serum albumin (BSA) for 2 hours. Antibodies against human HSP27 (Chemicon, 1:200) and scavenger receptor A (Serotec, 1:200) were incubated overnight at 4° C. Visualization of substrates was done using secondary antibodies conjugated to fluoroscein (for HSP27) and Texas Red (for SR-A). Negative controls included incubation with control IgG and secondary antibody alone.\nCells were grown on cover slips, and transfected as described above. Cells were fixed with BD Cytofix as directed by the manufacturer and mounted with Dako Fluorescent mounting media (Dako Cytomation, Mississauga, ON). Coverslips were visualized with an Olympus FluoView FV1000 confocal microscope (Olympus America Inc, Center Valley, Pa.) at 100× magnification, using sequential scanning to reduce any potential non-specific excitation of the different fluorophores.\nCells were also treated with an SR-A specific competitive ligand (fucoidan, 10 ug/ml) before administration of HSP27 (bottom panel). Co-localization is seen as a yellow colour. […] Macrophages from SR-A null mice were harvested and incubated with recombinant HSP27 (5 μg/ml) for 2 hours at 4° C. Immunolabeling was performed as described above."}, "[4]": {"test_system": "macrophages (IL-1β, IL-10 release)", "assay": "Cytokine release from acLDL-treated macrophages (western blot of conditioned media)", "assay_type": "cell-based, mouse", "conditions": "recombinant HSP27 5 μg/ml, acLDL 5 ug/ml, 30 minutes and 4 hours", "experimental": "(§1) Cell lysates were obtained using a RIPA buffer [1% NP-40, 0.5% sodium deoxycholate, 0.1% SDS, Complete™ inhibitor in PBS]. Cells were washed twice with PBS, lysed in RIPA buffer, collected using a cell scraper, and placed on ice for 45 minutes. Cell debris was collected by centrifugation at 15,000×g for 20 minutes, and the supernatant containing the cellular protein was isolated. Protein was quantified using Bradford reagent (Sigma). For western blotting, 50 μg of whole cell protein was loaded onto a 10% SDS-PAGE gel and separated at 120V using gel electrophoresis. Protein was then transferred to a PVDF membrane (BioRad, Hercules, Calif.) for 2 hours at 60V. Membranes were then subjected to western blotting using the following antibodies: anti-HSP27 (Santa Cruz, 1:200); anti-SR-A (Chemicon, 1:2000); anti-IL-1β (R&D, 1:500); anti-IL-10 (Santa Cruz, 1:200).\nFluorescently labeled acLDL (5 ug/ml) was given to macrophages in the presence or absence of recombinant HSP27 (5 μg/ml). Conditioned media was collected after 30 minutes and 4 hours and subjected to western blotting for IL-1β (FIG. 7A) and IL-10 (FIG. 7B). Addition of HSP27 caused a decrease in the acLDL-induced secretion of IL-1β into the extracellular space."}, "Human macrophages (U937)": {"test_system": "Human macrophages (U937)", "assay": "HSP27 secretion from human macrophages (Western blot of conditioned media)", "assay_type": "cell-based", "experimental": "as §1\nHuman macrophages (U937) were plated in replicates at a density of […] per well and treated with estradiol or acLDL. […] Macrophages were subjected to increasing concentrations of acLDL (1 to 100 μg/mL) for 24 hours."}, "aortic endothelial cells": {"test_system": "aortic endothelial cells", "assay": "HSP27 secretion from aortic endothelial cells (Western blot)", "assay_type": "cell-based, human", "conditions": "DPN 1 nM, 24 h", "from_the_text": "(§2) HSP27 was detected in the extracellular space by Western blot."}, "[5]": {"test_system": "aortic smooth muscle cells", "assay": "HSP27 secretion from aortic smooth muscle cells (Western blot)", "assay_type": "cell-based, human", "conditions": "DPN 1 nM, 24 h", "from_the_text": "as §2"}}, "note": "“Also recorded” adds a separate entry of the source.", "data": [{"compound": "rHSP27: recombinant human heat shock protein 27 produced in E. coli, purified, injected subcutaneously", "values": [{"measurement": "body weight", "setting": "ApoE−/− mice; 100 ug BID, 3 weeks", "value": "did not change"}, {"measurement": "cholesterol levels contained by VLDL and IDL/LDL (FPLC)", "setting": "ApoE−/− mice; 100 ug BID, 3 weeks", "value": "reduces cholesterol levels contained by VLDL and IDL/LDL"}, {"measurement": "number of WBC (peripheral blood smears)", "setting": "ApoE−/− mice; 100 ug BID, 3 weeks", "value": "did not change"}, {"measurement": "reduction in abundance of aortic sinus lesion macrophages", "setting": "ApoE−/− mice; 100 ug BID, 3 weeks, Mac-2", "value": "approximately 45%"}, {"measurement": "reduction in abundance of apoptotic macrophages in aortic sinus lesion", "setting": "ApoE−/− mice; 100 ug BID, 3 weeks, TUNEL", "value": "~80", "unit": "%"}, {"measurement": "reduction in aortic sinus lesion area", "setting": "ApoE−/− mice; 100 ug BID, 3 weeks, p=0.002", "value": 26, "unit": "%"}, {"measurement": "reduction in aortic wall (en face) lesion area", "setting": "ApoE−/− mice; 100 ug BID, 3 weeks, p=0.01", "value": 27, "unit": "%"}, {"measurement": "liver cholesterol content", "setting": "ApoE−/− mice; 100 ug BID, after the 3rd week", "value": "without a rise"}, {"measurement": "serum total cholesterol levels lower by", "setting": "ApoE−/− mice; 100 ug BID, after the 3rd week, vs PBS", "value": 41, "unit": "%"}, {"measurement": "adverse events when injected in mice", "setting": "ApoE−/− mice; mouse, in vivo", "value": "did not cause adverse events"}, {"measurement": "atherogenesis in ApoE−/− mice", "setting": "ApoE−/− mice; mouse, in vivo", "value": "efficacious in reducing atherogenesis"}, {"measurement": "serum rHSP27 level with twice daily injection schedule", "setting": "[1]", "value": "effective to maintain a serum level of rHSP27"}, {"measurement": "chaperone activity (in vitro aggregation and refolding assays)", "setting": "Insulin", "value": "functional"}]}, {"compound": "recombinant HSP27: Recombinant HSP27 was purchased from Stressgen; heat shock protein 27 added extracellularly to macrophages", "values": [{"measurement": "reduction in acLDL uptake by macrophages", "setting": "[2]; recombinant HSP27 5 μg/ml, fluorescently labeled acLDL 5 μg/ml, normalized to total cell number", "value": 41, "unit": "%"}, {"measurement": "HSP27 binding to the cell surface of macrophages from SR-A null mice", "setting": "[3]; 5 μg/ml, 2 hours at 4° C.", "value": "completely abolished"}, {"measurement": "binding to surface of macrophages and co-localization with SR-A", "setting": "[3]; 5 μg/ml, 2 hours at 4° C., confocal microscopy", "value": "capable of binding the surface of macrophages, and co-localizes with SR-A"}, {"measurement": "acLDL-induced secretion of IL-1β", "setting": "[4]", "value": "decrease"}, {"measurement": "release of IL-10", "setting": "[4]", "value": "increased"}, {"measurement": "acLDL-induced secretion of IL-1β", "setting": "[4]; listed as HSP27", "value": "considerable decrease; also recorded: reduced"}]}, {"compound": "C[C@]12CC[C@@H]3c4ccc(O)cc4CC[C@H]3[C@@H]1CC[C@@H]2O", "note": "[E2, 17β-estradiol]", "values": [{"measurement": "intracellular HSP27 protein levels", "setting": "Human macrophages (U937)", "value": "increased slightly"}, {"measurement": "colocalization of HSP27 with lysosome marker LAMP1", "setting": "Human macrophages (U937); 100 nmol/L E2 overnight", "value": "displayed colocalization of HSP27 (red) and LAMP1"}, {"measurement": "HSP27 release into the media", "setting": "Human macrophages (U937); E2 for 24 hours, compared to controls", "value": "dose-dependent increase"}, {"measurement": "time of maximum HSP27 secretion", "setting": "Human macrophages (U937); estrogen-induced release over time", "value": 24, "unit": "h"}]}, {"compound": "N#CC(Cc1ccc(O)cc1)c1ccc(O)cc1", "note": "(stereo not shown) [DPN]", "values": [{"measurement": "HSP27 secretion upon stimulation of ERβ", "setting": "Human macrophages (U937); DPN 1 nM, 4 h or 24 h", "value": "enhanced"}, {"measurement": "HSP27 secretion from endothelial cells", "setting": "aortic endothelial cells", "value": "increase in HSP27 secretion"}, {"measurement": "HSP27 secretion from smooth muscle cells", "setting": "[5]", "value": "not smooth muscle cells"}]}, {"compound": "fucoidan [reference compound]", "values": [{"measurement": "inhibition of acLDL uptake by macrophages", "setting": "[2]; fucoidan 10 ug/ml before acLDL or HSP27", "value": "capable of inhibiting this process"}, {"measurement": "HSP27 binding to SR-A in the presence of competitor", "setting": "[3]; fucoidan 10 ug/ml before HSP27", "value": "reduced"}]}]}
